Experimental data published in paper PMC2990756, “Quantitative High-Throughput Screening Identifies 8-Hydroxyquinolines as Cell-Active Histone Demethylase Inhibitors” (PLoS ONE, 2010).
Like-named read-outs stand apart in the source and are kept apart here. One block for each compound: values may come before it.

Assays:
Assay type in all cases: biochemical
JMJD2E (KDM4E) = biological target: T1, JMJD2E (KDM4E) (Homo sapiens, UniProt B2RXH2); test: qHTS fluorescence FDH-coupled JMJD2E demethylase assay
T1 construct: The catalytic domain of human JMJD2E (residues 1–337); His6 (N); made in house; host or cells: E. coli
T1 sequence (B2RXH2 1-337): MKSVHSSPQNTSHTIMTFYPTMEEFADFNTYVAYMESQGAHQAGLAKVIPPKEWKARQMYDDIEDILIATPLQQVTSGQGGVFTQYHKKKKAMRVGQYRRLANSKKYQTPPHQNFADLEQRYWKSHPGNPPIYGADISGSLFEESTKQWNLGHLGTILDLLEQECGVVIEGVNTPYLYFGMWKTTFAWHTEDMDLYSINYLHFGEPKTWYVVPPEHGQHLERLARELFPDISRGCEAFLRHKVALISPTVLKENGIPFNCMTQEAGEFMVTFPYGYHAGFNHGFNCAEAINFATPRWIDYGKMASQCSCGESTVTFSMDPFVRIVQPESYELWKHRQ
From the text: The oxidation of formaldehyde is coupled to the reduction of NAD^+ to NADH, which is monitored by fluorescence spectroscopy. […] To this end, initial screening hits were filtered by a combination of cheminformatics (to exclude low-confidence inhibitors and autofluorescent false positives), counterscreening against the coupled-assay component formaldehyde dehydrogenase (FDH), and orthogonal direct detection of inhibition of demethylation by mass spectrometry ( Figure 1 ).
Reactions were initiated with 1 µL addition of peptide substrate solution containing final concentrations of 10 µM FAS, 50 µM 2OG, 0.25 U/mL FDH, 0.25 mM NAD^+, and 50 µM peptide substrate (ARK(me3)STGGK). A ViewLux imager (PerkinElmer, Waltham, MA) was used to measure NADH fluorescence (λex 340 nm, λem 450 nm) immediately after substrate addition and following 30 min incubation at room temperature. To record any systematic drifts in assay behavior (signal window and noise), assay plates containing no library compounds but only DMSO as a vehicle control were tested periodically (every ∼60 plates) throughout the screen.
Data were normalized to the basal response (0% activity) in the absence of enzyme and the maximal response (100% activity) in the absence of compound. Using the Hill equation, dose-response curves and IC50 values were automatically generated for each compound tested with software developed internally (www.ncgc.nih.gov/pub/openhts/curvefit/). […] The initial well fluorescence (first kinetic read) associated with each sample was stored in a database and used in the cheminformatics analysis to identify autofluorescent compounds interfering with the assay signal.

[1] = biological target: T2, formaldehyde dehydrogenase (FDH) (Pseudomonas putida, UniProt P46154); test: FDH coupling enzyme counterscreen
T2 construct: purchased Sigma-Aldrich
From the text: Dimethylsulfoxide certified ACS grade (DMSO) was from Fisher, Inc. HEPES buffer was obtained from Gibco. […] Black solid-bottom 1,536-well assay plates were from Greiner Bio-One (Monroe, NC).

JMJD2E = biological target: T3, JMJD2E (Homo sapiens, UniProt B2RXH2); test: JMJD2E FDH-coupled assay under low and high iron conditions (iron chelation profile); design: The catalytic domain of human JMJD2E (residues 1–337); His6 (N); made in house; host or cells: E. coli
T3 sequence (B2RXH2 1-337): T1 sequence (B2RXH2 1-337)
Method: The prioritized compounds were also evaluated in the screening assay using two different ferrous ion concentrations (termed high iron and low iron, respectively), in order to assess their propensity for iron chelation.
The ratio of IC50 values under high iron to low iron was calculated for each compound.

[2] = Figure 2, 100 nM JMJD2E, 10 µM FAS, read-out: IC50 values in μM, qHTS
[3] = Figure 3, substituted 8-hydroxyquinolines against JMJD2E, read-out: IC50 /μM (qHTS IC50, FDH-coupled assay)
[4] = Table S1, unit not in table, from Figure 2, read-out: qHTS Data: jmjd2e IC50
[5] = Table S1, high iron, head says 20 µM FAS, unit not in table, from Figure 2, read-out: qHTS Data: jmjd2e fas20um IC50
[6] = Table S1, low iron 2.5 µM FAS, unit not in table, from Figure 2, read-out: qHTS Data: jmjd2e fas2.5um IC50
[7] = Table S1, FDH counterscreen, unit not in table, from Figure 2, read-out: qHTS Data: jmjd2e fdh IC50

T2 sequence (P46154 whole entry): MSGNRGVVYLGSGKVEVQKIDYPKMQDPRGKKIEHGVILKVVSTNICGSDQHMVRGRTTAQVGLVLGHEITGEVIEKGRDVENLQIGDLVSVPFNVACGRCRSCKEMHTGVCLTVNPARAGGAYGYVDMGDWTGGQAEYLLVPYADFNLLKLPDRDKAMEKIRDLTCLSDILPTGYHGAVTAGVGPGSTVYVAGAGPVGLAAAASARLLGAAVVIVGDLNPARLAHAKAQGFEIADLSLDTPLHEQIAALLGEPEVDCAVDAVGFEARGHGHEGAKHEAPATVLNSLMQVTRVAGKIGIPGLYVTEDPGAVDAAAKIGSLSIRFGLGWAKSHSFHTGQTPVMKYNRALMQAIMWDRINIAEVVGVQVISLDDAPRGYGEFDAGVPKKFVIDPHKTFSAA

SMILES: Oc1ccc(NCc2ccccc2OCc2ccccc2F)cc1 [SID 17385881]
IC50 (JMJD2E (KDM4E); [2]): 5 µM
IC50 ([1]; Figure 2, 0.025 U/mL FDH, 10 µM formaldehyde, read-out: IC50 values in μM, FDH): > 57 µM
IC50 (JMJD2E; Figure 2, high iron 25 µM Fe(II), read-out: IC50 values in μM, High Fe): 14.1 µM

IC50 (JMJD2E (KDM4E); [2]): 4.5 µM
SMILES: COc1ccccc1NC(=O)c1sc2ncn(Cc3ccccc3C)c(=O)c2c1C [SID 17408386]

IC50 (JMJD2E (KDM4E); FDH coupled assay, read-out: IC50 against JMJD2E): 2 µM
IC50 (JMJD2E (KDM4E); [3]): 2.0 µM
SMILES: O=C(O)c1ccnc2c(O)cccc12 [SID 85736397, 4-carboxy-8-hydroxyquinoline]

SMILES: Oc1ccc(CNc2ccccc2)c2cccnc12 [compound 842629]
IC50 (JMJD2E (KDM4E); [3]): 8.9 µM
IC50 (JMJD2E (KDM4E); [4]): 8.91 µM
qHTS Data: jmjd2e fdh CurveClass ([1]; Table S1, FDH counterscreen): Inactive
IC50 (JMJD2E; [5]): 14.1 µM
IC50 (JMJD2E; [6]): 1.26 µM

IC50 (JMJD2E (KDM4E); [3]): 36 µM
SMILES: Oc1ccc(COCc2ccccc2)c2cccnc12 [compound 848472]

SMILES: CCOC(=O)C1CCN(Cc2ccc(O)c3ncccc23)CC1 [compound 850072]
IC50 (JMJD2E (KDM4E); [4]): 8.91 µM
qHTS Data: jmjd2e fdh CurveClass ([1]; Table S1, FDH counterscreen): Inconclusive
IC50 (JMJD2E; [5]): 2 µM
IC50 (JMJD2E; [6]): 4.47 µM

SMILES: O=C(NO)c1ccccc1O [compound 855524]
IC50 (JMJD2E (KDM4E); [4]): 10 µM
qHTS Data: jmjd2e fdh CurveClass ([1]; Table S1, FDH counterscreen): Poor quality curve
IC50 [1, 7]: 3.55 µM
qHTS Data: jmjd2e fas20um CurveClass (JMJD2E; Table S1, high iron): Inactive
IC50 (JMJD2E; [6]): 12.6 µM

IC50 (JMJD2E (KDM4E); [3]): 8.9 µM
SMILES: OCc1ccnc2c(O)cccc12 [compound 857270]

IC50 (JMJD2E (KDM4E); [3]): > 39 µM
SMILES: Oc1cccc2ccc(/C=C/c3cccs3)nc12 [compound 14734630]

IC50 (JMJD2E (KDM4E); [4]): 39.8 µM
SMILES: Cc1ccc2ccc(C(Nc3ccccn3)c3ccccc3)c(O)c2n1 (centres unmarked) [compound 14737227]

IC50 (JMJD2E (KDM4E); [3]): 28 µM
SMILES: Oc1cccc2ccc(/C=C/c3c(F)cccc3Cl)nc12 [compound 24793399]

SMILES: CN(C)c1cc(N/N=C/c2ccc(Cl)cc2)nc(N(C)C)n1 [compound 24813304]
qHTS Data: jmjd2e fdh CurveClass ([1]; Table S1, FDH counterscreen): Poor quality curve
IC50 [1, 7]: 14.1 µM

SMILES: O=C(O)C(=O)O.c1cc(CN2CCN(C3CCCCCC3)CC2)ccn1 [compound 24817627]
qHTS Data: jmjd2e fdh CurveClass ([1]; Table S1, FDH counterscreen): Inactive

SMILES: O=C(Nc1ccccc1C(F)(F)F)c1ncn[nH]1 [compound 24822488]
qHTS Data: jmjd2e fdh CurveClass ([1]; Table S1, FDH counterscreen): Poor quality curve
IC50 [1, 7]: 22.4 µM

SMILES: O=C(CN1CCN(Cc2ccccc2)CC1)NC(c1ccccc1)c1ccccc1.O=C(O)C(=O)O [compound 24822653]
qHTS Data: jmjd2e fdh CurveClass ([1]; Table S1, FDH counterscreen): Inactive

SMILES: CC(CCc1ccccc1)NC(=O)CN1CCN(c2ccc(O)cc2)CC1 (centres unmarked) [compound 24833440]
qHTS Data: jmjd2e fdh CurveClass ([1]; Table S1, FDH counterscreen): Inactive

SMILES: CN(C)CCCNCC(=O)Nc1ccc(Cl)cc1C(=O)c1ccccc1.O=C(O)C(=O)O [compound 24839839]
qHTS Data: jmjd2e fdh CurveClass ([1]; Table S1, FDH counterscreen): Inactive

SMILES: COc1ccc(Cl)cc1CSc1ncn[nH]1 [compound 26662682]
IC50 [1, 7]: 0.32 µM

SMILES: CCCCn1c(=O)[nH]c2nc3cc(NC(C)=O)ccc3nc2c1=O [compound 26671554]
IC50 [1, 7]: 11.2 µM

SMILES: COc1cc(C2C3=C(CCCC3=O)Nc3c2c(C)nn3-c2cccc(C)c2)cc(OC)c1O (centres unmarked) [compound 26724424]
qHTS Data: jmjd2e fdh CurveClass ([1]; Table S1, FDH counterscreen): Inactive

SMILES: CC1(OC(=O)C2CCCC2)C(=O)C=C2C=C(c3ccsc3)N(CCc3ccccn3)C=C2C1=O (centres unmarked) [compound 26725362]
qHTS Data: jmjd2e fdh CurveClass ([1]; Table S1, FDH counterscreen): Inactive

SMILES: COC(=O)CCC(=O)OC1(C)C(=O)C=C2C=C(C3CC3)N(CCc3ccccn3)C=C2C1=O (centres unmarked) [compound 26725368]
qHTS Data: jmjd2e fdh CurveClass ([1]; Table S1, FDH counterscreen): Inactive

SMILES: COCCN1C=C2C(=O)C(C)(OC(=O)CCc3ccccc3)C(=O)C=C2C=C1c1ccc(C#N)cc1 (centres unmarked) [compound 26725518]
qHTS Data: jmjd2e fdh CurveClass ([1]; Table S1, FDH counterscreen): Poor quality curve

SMILES: CC1(OC(=O)CCc2ccccc2)C(=O)C=C2C=C(c3ccc(C#N)cc3)N(C3CC3)C=C2C1=O (centres unmarked) [compound 26725552]
qHTS Data: jmjd2e fdh CurveClass ([1]; Table S1, FDH counterscreen): Inactive

SMILES: Cc1noc(C)c1C(=O)NNc1ccc(C(C)C)cc1 [compound 26728365]
qHTS Data: jmjd2e fdh CurveClass ([1]; Table S1, FDH counterscreen): Inactive

IC50 (JMJD2E (KDM4E); [4]): 1.41 µM
qHTS Data: jmjd2e fas20um CurveClass (JMJD2E; Table S1, high iron): Poor quality curve
IC50 (JMJD2E; [5]): 3.16 µM
IC50 (JMJD2E; [6]): 2.82 µM
SMILES: Oc1cc(O)c2c(c1)OC(c1cc(O)c(O)c(O)c1)C(O)C2 (centres unmarked) [compound 26749553]

IC50 (JMJD2E (KDM4E); [3]): 7.9 µM
SMILES: Oc1ccc(CNc2cccc(C(F)(F)F)c2)c2cccnc12 [compound 50122416]

IC50 (JMJD2E (KDM4E); [3]): 5 µM
SMILES: Oc1c(CN2CCCC2)cc(COCc2ccccc2)c2cccnc12 [compound 85736312]
